Here are results for 27 compounds from PubChem BioAssay (NCI).

Common to all, as to assay: growth of human tumour cells (NCI), 48 h
Test [1] relates to OVCAR-5 ovarian.
The test system of test [2] is NCI-H226 lung.
Test [3] has as its system MDA-N.
Test [4] relates to K-562 leukemia.
The subject of test [5] is NCI-H23 lung.
Test [6] has as its system ACHN renal.
Test [7] relates to EKVX NSCLC.
Test [8] relates to IGROV1 ovarian.
Test [9] relates to OVCAR-8 ovarian.
The subject of test [10] is SF-295 CNS.

Several values for one entry are separate records, joined by “and”; a condition that tells them apart may be missing. Identical values can stand only once.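 Each compound was tested at five concentrations against cells in 96-well plates for 48 hours. Here, GI50 denotes the concentration required for 50% inhibition of growth. TGI marks complete inhibition of growth.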 A value given as a limit tells only on which side of the number the result lay.

As for `C[C@@H]([C@H]1CC[C@@]2(C)[C@@H]3CC[C@@H]4C(=CC3=CC[C@]12C)CC[C@H](N(C)C)C4(C)C)N(C)C`, the TGI in test [1], in test [2], in [3], in [4], in test [5] and in test [6] was more than 100 µM throughout. Further, the TGI in test [7], in test [8], in test [9] and in test [10] was more than 100 µM each time.
With `COc1c(NC(C)=O)c2ccccc2c2ccccc12`, the TGI in [1], in [2], in test [3], in [4], in test [5] and in test [6] was more than 100 µM in each case. For the same compound, the TGI in test [7], in test [8], in test [9] and in test [10] was more than 100 µM each time.
Consider `C[C@H](NC(=O)C(C)(Cc1ccc(O)cn1)NC(=O)c1ccccc1)c1ccccc1` (some centres undefined), for which the TGI in test [1], in [2], in test [3], in [4], in test [5] and in [6] was more than 100 µM throughout. The TGI in test [7], in test [8], in test [9] and in test [10] was more than 100 µM in each case.
In the case of `CC(C)=CCNc1ncnc2c1ncn2CCC(=O)O`, the TGI in [1], in [2], in test [3], in [4], in [5] and in test [6] was more than 100 µM throughout. Further, the TGI in test [8], in test [9] and in [10] was more than 100 µM each time.
`COC(=O)c1ccc(C)cc1C1CN=NC12Cc1cccc(C)c1C2=O` (centres undefined): the TGI in test [1] is more than 100 µM; in [2], 73.6 µM; in test [3], 70.9 µM; in [4], 68.4 µM; in test [5], more than 100 µM; in [6], more than 100 µM. The TGI in test [7] is more than 100 µM; in test [8], more than 100 µM; in test [9] it was 47.1 µM; in [10] it was more than 100 µM.
As to `O=Cc1c2c(cc3c1CC1(C3)Cc3cc4c(c(C=O)c3C1)CCC4)CCC2`, the TGI in [1] was more than 100 µM; in test [2], more than 100 µM; in test [3], more than 100 µM; in test [4], 63.7 µM; in [5], more than 100 µM; in test [6] it was 43.6 µM. For the same compound, the TGI in test [7], in test [8], in [9] and in test [10] was more than 100 µM throughout.
On to `COc1ccc(/C=C/C(=O)c2cc(CN(C)C)c(O)c(CN(C)C)c2)cc1`, for which the TGI in [1] is more than 100 µM; in test [2], more than 100 µM; in [3] it was 67.1 µM; in test [4] it was 70.7 µM; in test [5], more than 100 µM; in test [6], more than 100 µM. The TGI in test [7] was more than 100 µM; in test [8] it was more than 100 µM; in test [9], more than 100 µM; in [10], 91.1 µM.
Regarding `CCOC(=O)c1cnc2n(c1=O)[C@H]1CCCC[C@@H]1N2`, the TGI in test [1], in [2], in test [3], in [4], in test [5] and in test [6] was more than 100 µM throughout. In addition, the TGI in [7], in test [8], in test [9] and in test [10] was more than 100 µM each time.
For `O=C(NC1=C(Cl)C(=O)c2ccccc2C1=O)C(=O)c1c(O)c2ccccc2oc1=O`, the TGI in test [1] is 26.3 µM; in test [2] it was 28.9 µM; in test [3], 2.7 µM; in test [4] it was more than 100 µM; in [5] it was 4.38 µM; in test [6] it was 14 µM. For the same compound, the TGI worked out at 22.4 µM in test [7], 16.1 µM in [8], 31 µM in [9] and 9.58 µM in [10].
`Cc1cc(NS(=O)(=O)c2ccc(Nc3c4ccccc4nc4c(C(=O)NC(CO)(CO)CO)cccc34)cc2)no1`: the TGI in test [1], in test [3], in test [4], in test [5], in [6] and in [7] was more than 100 µM in each case. In addition, the TGI in [8], in test [9] and in test [10] was more than 100 µM each time.
Consider `C#CC(O)/C=C/C(O)CCCC(O)CC#CC(O)C#CCCCCC(O)/C=C/CCCC(=O)CCCCCCCCCCCCCCCC(O)C(O)C#CC(=O)O` (centres undefined), for which the TGI in [1], in test [2], in test [3], in test [4], in test [5] and in test [6] was more than 25 µM each time. Besides, the TGI in test [7], in test [8], in test [9] and in test [10] was more than 25 µM throughout.
Take `Oc1ccc(Nc2nc(Cl)c3[nH]cnc3n2)cc1`: the TGI in [1], in [2], in test [3], in test [4], in test [5] and in [6] was more than 100 µM throughout. For the same compound, the TGI in [7], in test [8], in test [9] and in test [10] was more than 100 µM in each case.
In the case of `Cc1cc2ccccc2oc(=O)/c1=N\Nc1ccccc1`, the TGI in test [1], in test [2], in [3], in test [4], in [5] and in test [6] was more than 100 µM in each case. Besides, the TGI in test [7], in test [8], in [9] and in test [10] was more than 100 µM in each case.
With `C=CCN1C(=O)C[C@H](Cc2ccccc2)NC(=O)C[C@H](Cc2ccccc2)N(CC=C)C(=O)C[C@H](Cc2ccccc2)NC(=O)C[C@@H]1Cc1ccccc1`, the TGI in [1] is more than 100 µM; in test [2] it was more than 100 µM; in test [3] it was more than 100 µM; in [4] it was more than 100 µM; in [5], more than 100 µM; in test [7], 9.25 µM. Also, the TGI in test [8], in test [9] and in [10] was more than 100 µM in each case.
With `CNCC(SC)c1ccc(O)c(O)c1` (centres undefined), the TGI in [1] was more than 100 µM; in test [2], more than 100 µM; in [3], 38.1 µM; in test [4], 59 µM; in [5], more than 100 µM; in test [6], 33.4 µM. The TGI in test [7] was 37.1 µM; in test [8] it was more than 100 µM; in test [9] it was 41.4 µM; in test [10] it was more than 100 µM.
For the compound `CC(=O)N1CCOC12N=NC(C)(C)O2` (centres undefined), the TGI in test [1], in test [3], in test [4], in test [5], in test [6] and in [7] was more than 100 µM throughout. Moreover, the TGI in [8], in test [9] and in test [10] was more than 100 µM each time.
For the compound `Cc1ccc(N=Nc2c(O)ccc3ccccc23)c(C)c1`, the TGI in test [1], in [2], in [3], in [4], in test [5] and in [8] was more than 100 µM throughout. The TGI in [9] and in test [10] was more than 100 µM throughout.
In the case of `Cc1noc(-c2ccc(C(=O)O)[nH]2)c1Br`, the TGI in test [1], in [3], in test [4], in [5], in test [6] and in test [7] was more than 100 µM in each case. Also, the TGI in test [8] was more than 100 µM; in test [9], 32.2 µM; in [10] it was more than 100 µM.
Turning to `C=CCCCN(C(=O)c1ccccc1)c1ccc(C(=O)OC)o1`, the TGI in test [1], in [2], in [3], in test [5], in test [6] and in test [7] was more than 100 µM each time. Moreover, the TGI in [8], in test [9] and in test [10] was more than 100 µM in each case.
`C[C@@H]1C[C@@H]2OC(=O)[C@]3(C)[C@H]2[C@@H](OC3(C)O)[C@]2(C)C(=O)C=C[C@@H]12` (some centres undefined): the TGI is 41 µM in test [1]; more than 100 µM in test [2]; 35.5 µM in [3]; 2.69 µM in test [4]; 70 µM in test [5]; 45 µM in test [6]. The TGI was 49.2 µM in test [7], more than 100 µM in test [9] and more than 100 µM in test [10].
Regarding `COc1ccc(NCn2nc(CCCCCCCCc3nn(CNc4ccc(OC)cc4)c(=S)o3)oc2=S)cc1`, the TGI in test [1], in test [2], in test [3], in [4], in test [5] and in test [6] was more than 100 µM throughout. The TGI in [7] and in [10] was more than 100 µM throughout.
Consider `CSCCC(NC(=O)C(Cc1c[nH]c2ccccc12)NC(=O)CCNC(=O)OC(C)(C)C)C(=O)NC(CC(=O)O)C(=O)NC(Cc1ccccc1)C(N)=O` (centres undefined), for which the TGI in [1], in [2], in [3], in test [4], in test [7] and in test [8] was more than 50 µM in each case. The same compound had a TGI in test [10] of more than 50 µM.
As to `O=S1(=O)N=C(SCc2c[nH]c3ccccc23)N(c2ccccc2)c2ccncc21`, the TGI in [1], in test [2], in [3], in test [4], in [5] and in [6] was more than 100 µM in each case. For the same compound, the TGI in test [7], in [9] and in test [10] was more than 100 µM each time.
Regarding `Oc1c(NCn2nc(CCCCCCCCc3nn(CNc4ccc5ccccc5c4O)c(=S)o3)oc2=S)ccc2ccccc12`, the TGI in [1] is more than 100 µM; in test [2], more than 100 µM; in test [3], 48.5 µM; in test [4], more than 100 µM; in [5], more than 100 µM; in test [6], more than 100 µM. Further, the TGI in test [7], in test [8] and in [10] was more than 100 µM each time.
`Cc1oc(N)c(S(=O)(=O)/C(C#N)=C/c2ccccc2[N+](=O)[O-])c1C`: the TGI in test [1] is 39.2 µM; in test [2], more than 100 µM; in [3], 46.9 µM; in [4] it was 60.4 µM; in test [5] it was 79.4 µM; in test [6], more than 100 µM. The TGI in [7], in [8] and in test [10] was more than 100 µM each time.
Take `CC(C)=CC(=O)OC1C2C(C)=CC(=O)C(O)C2(C)C2C3(O)OCC24C(CC(=O)OC14)C(C)C3O` (centres undefined): the GI50 in [1] is 0.113 µM; in test [2], 0.02 µM; in [4], 0.02 µM; in test [5], 0.02 µM; in [8] it was 0.02 µM; in [9], 0.0251 µM. Also, in test [10], the GI50 is 0.0126 µM. The TGI in [3] was 0.00481 µM; in test [4], 0.0775 µM and 0.237 µM; in test [6], 0.443 µM; in test [9] it was 0.125 µM and 0.0247 µM and 0.0683 µM; in test [10] it was 0.154 µM and 0.0672 µM and 0.0966 µM.
On to `Nc1ccnc2c1ncn2[C@H]1C[C@H](O)[C@@H](CO)O1`, for which the TGI in [1], in [2], in test [3], in [5], in [6] and in test [7] was more than 100 µM in each case. The TGI in test [8], in [9] and in [10] was more than 100 µM throughout.
